Experimental data published in patent publication US10683352B1, “Methods for treating cancer using GRM8 inhibitors” (Flagship Pioneering Innovations V, Inc., priority 2018, dated 2020).

Tested on: M2-like macrophages
Assay: IL-8 secretion by monocyte-derived macrophages treated with mGluR8 agonist (LEGENDplex bead-based immunoassay)
Format: cell-based, human
Conditions: supernatant; for Fold change of IL-8 (Normalized to M2-like Macs + LPS with no compound treatment): human monocyte-derived macrophages, LEGENDplex
Procedure: CD14+ monocytes were isolated from human PBMCs using negative magnetic bead selection (Stemcell Technologies) on day 0. Cells were cultured with M-CSF to differentiate monocytes to macrophages. On day 6, cells were treated with L-AP4 (selective group III metabotropic glutamate receptor agonist) (Sigma-Aldrich), at concentrations 1 μM and 10 μM overnight. Supernatant was collected and LEGENDplex™ bead-based immunoassays (Biolegend) were performed to detect for changes in cytokines secreted.
Secretion of the inflammatory cytokine, IL-8, was decreased with the addition of the mGluR8 agonist in M2-like macrophages, consistent across multiple donors, as shown in Table 17 below.

NC(CCP(=O)(O)O)C(=O)O [L-AP4]
Fold change of IL-8 (Normalized to M2-like Macs + LPS with no compound treatment) (M2-like Macs + L-AP4 1 μM overnight): 0.646
Fold change of IL-8 (Normalized to M2-like Macs + LPS with no compound treatment) (M2-like Macs + L-AP4 10 μM overnight): 0.866
Secretion of the inflammatory cytokine IL-8 (macrophages differentiated with M-CSF from CD14+ monocytes of human PBMCs, L-AP4 at 1 μM and 10 μM overnight, multiple donors): decreased
